Test results published in paper PMC7129916 (Clinical Microbiology and Infection, 2015).
In brackets after ≈: the same amount, converted by molar mass. Read-outs that look alike come from different tables or passages of the source. Blank lines part the entries; values can stand above or below the compound they belong to.

Assays:
H. influenzae [1] = assay: microbe, parasite or virus in culture; assay type: cell-based; conditions: Haemophilus influenzae
M. catarrhalis [2] = assay: microbe, parasite or virus in culture; assay type: cell-based; conditions: Moraxella catarrhalis
[3] = set-up: species or system human; conditions: in vivo
[4] = test system: Viridans group streptococci (VGS); assay: organism not typed; assay type: cell-based
beta-streptococci (BST) = assay: organism not typed
S. aureus (SA) [5] = assay: microbe, parasite or virus in culture; conditions: Staphylococcus aureus
Acinetobacter spp. (AC) = assay: microbe, parasite or virus in culture
E. coli ESBL = assay: microbe, parasite or virus in culture; assay type: cell-based
H. influenzae (Hi) [6] = assay: microbe, parasite or virus in culture; conditions: Haemophilus influenzae
S pneumoniae (SPN) = assay: microbe, parasite or virus in culture; assay type: cell-based
Enterobacter spp. (ENT) [7] = assay: microbe, parasite or virus in culture
[8] = test system: all resistant organism subsets; assay type: cell-based
H. influenzae (Hi) [9] = test system: H. influenzae (Hi)
[10] = test system: S. aureus and/or streptococcal baseline pathogens; assay: microbe, parasite or virus in culture; conditions: Staphylococcus aureus, read-out: MIC values
Enterococcus spp. (ESP) = assay: microbe, parasite or virus in culture; assay type: cell-based
Klebsiella spp. (KSP) = assay: microbe, parasite or virus in culture
E. coli (EC) = assay: microbe, parasite or virus in culture; conditions: Escherichia coli
S. aureus (SA) [11] = assay: microbe, parasite or virus in culture; assay type: cell-based; conditions: Staphylococcus aureus
Enterobacter spp. (ENT) [12] = test system: Enterobacter spp. (ENT)
[13] = test system: Coag neg staphylococci (CoNS); assay: organism not typed; assay type: cell-based
Serratia spp. (SER) = assay: microbe, parasite or virus in culture
S. pneumoniae (SPN) [14] = assay: microbe, parasite or virus in culture; conditions: Streptococcus pneumoniae
S. pneumoniae (SPN) [15] = test system: S. pneumoniae (SPN)
P. aeruginosa (PSA) = assay: microbe, parasite or virus in culture; conditions: Pseudomonas aeruginosa
[16] = test system: S. aureus and/or streptococci; conditions: 30 of 35 pts
Klebsiella spp. ESBL = assay: microbe, parasite or virus in culture; assay type: cell-based
M. catarrhalis (MCAT) = assay: microbe, parasite or virus in culture; conditions: Moraxella catarrhalis
Enterobacteriaceae (ENT) = assay: organism not typed; assay type: cell-based
MSSA [17] = assay: microbe, parasite or virus in culture; conditions: Staphylococcus aureus
[18] = test system: intracellular P. gingivalis in KB cells; assay type: cell-based
MRSA = assay: microbe, parasite or virus in culture; conditions: Staphylococcus aureus
MSSA [19] = test system: MSSA
H. influenzae [20] = assay: microbe, parasite or virus in culture; assay type: cell-based; conditions: Haemophilus influenzae; remark: listed apart in the source
S. pneumoniae [21] = test system: S. pneumoniae
S. aureus MSSA = assay: microbe, parasite or virus in culture; assay type: cell-based; conditions: Staphylococcus aureus
M. catarrhalis [22] = assay: microbe, parasite or virus in culture; assay type: cell-based
K. pneumoniae = assay: microbe, parasite or virus in culture; assay type: cell-based; conditions: Klebsiella pneumoniae
S. pneumoniae [23] = assay: microbe, parasite or virus in culture; assay type: cell-based; conditions: Streptococcus pneumoniae
S. pneumoniae (Sp) = assay: microbe, parasite or virus in culture; assay type: cell-based; conditions: Streptococcus pneumoniae
[24] = 90% CI 86 to 97%
Porphyromonas gingivalis = assay: microbe, parasite or virus in culture; assay type: cell-based, P. gingivalis; conditions: read-out: MIC of mutants
S. aureus MRSA = assay: microbe, parasite or virus in culture; assay type: cell-based; conditions: Staphylococcus aureus
[25] = in vivo
Streptococcus pneumoniae = assay: microbe, parasite or virus in culture; assay type: cell-based, S. pneumoniae

SMILES: COc1c(N2CCNC(C)C2)c(F)cc2c(=O)c(C(=O)O)cn(C3CC3)c12 (centres unmarked) [GFX, gatifloxacin]
MIC50 (H. influenzae [1]): ≤ 0.03 µg/mL | MIC50 (M. catarrhalis [2]): ≤ 0.03 µg/mL

SMILES: C[C@@H](O)[C@H]1C(=O)N2C(C(=O)O)=C(S[C@@H]3CN[C@H](C(=O)Nc4cccc(C(=O)O)c4)C3)[C@H](C)[C@H]12 [ETP]
Adjusted LOS [3]: 11.9

SMILES: COc1c(N2C[C@@H]3CCCN[C@@H]3C2)c(F)cc2c(=O)c(C(=O)O)cn(C3CC3)c12 [moxifloxacin]
MIC50 (MSSA [17]): 0.25 µg/mL (≈ 0.623 µM) | concentration killing all intracellular P. gingivalis [18]: 100 fold MIC | MIC90 (MRSA): ≥ 16 µg/mL | more active than ciprofloxacin (MSSA [19]): 4 fold | MIC90 (H. influenzae [20]): 0.125 µg/mL (≈ 0.311 µM) | %I (S. pneumoniae [21]; 2002 (n = 103)): 3% | %R (S. pneumoniae [21]; 2002 (n = 103)): 1% | %S (S. pneumoniae [21]; 2002 (n = 103)): 96% | %I (S. pneumoniae [21]; 2003 (n = 137)): 0% | %R (S. pneumoniae [21]; 2003 (n = 137)): 1.5% | %S (S. pneumoniae [21]; 2003 (n = 137)): 98.5% | %I (S. pneumoniae [21]; 2004 (n = 110)): 0% | %R (S. pneumoniae [21]; 2004 (n = 110)): 0% | %S (S. pneumoniae [21]; 2004 (n = 110)): 100% | MIC90 (S. aureus MSSA): 1 µg/mL (≈ 2.49 µM) | susceptible (%) (M. catarrhalis [22]): 100% | MIC90 (M. catarrhalis [22]; Moraxella catarrhalis): 0.125 µg/mL (≈ 0.311 µM) | MIC90 (K. pneumoniae): 0.75 µg/mL (≈ 1.87 µM) | MIC90 (S. pneumoniae [23]): 0.19 µg/mL (≈ 0.473 µM) | MIC90 (S. pneumoniae (Sp)): 0.25 µg/mL (≈ 0.623 µM) | AUC point estimate B/A [24]: 91% | AUC point estimate C/A [24]: 91% | MIC (Porphyromonas gingivalis): > 32 µg/mL | MIC90 (S. aureus MRSA): 8 µg/mL (≈ 19.9 µM)

Second part, led by results:

MIC50 [4]: ≤ 0.12 µg/mL | MIC90 [4]: 0.12 µg/mL (≈ 0.205 µM) | MIC50 (beta-streptococci (BST)): ≤ 0.12 µg/mL | MIC90 (beta-streptococci (BST)): ≤ 0.12 µg/mL | MIC50 (S. aureus (SA) [5]): 0.25 µg/mL (≈ 0.427 µM) | MIC90 (S. aureus (SA) [5]): 0.5 µg/mL (≈ 0.854 µM) | MIC50 (Acinetobacter spp. (AC)): 1 µg/mL (≈ 1.71 µM) | MIC90 (Acinetobacter spp. (AC)): 4 µg/mL (≈ 6.83 µM) | MIC50 (E. coli ESBL; Escherichia coli): 0.25 µg/mL (≈ 0.427 µM) | MIC90 (E. coli ESBL; Escherichia coli): 0.5 µg/mL (≈ 0.854 µM) | MIC50 (H. influenzae (Hi) [6]): 0.5 µg/mL (≈ 0.854 µM) | MIC90 (H. influenzae (Hi) [6]): 1 µg/mL (≈ 1.71 µM) | MIC 50% (S pneumoniae (SPN); CIP-R (171)): ≤ 0.12 µg/mL | MIC50 (S pneumoniae (SPN); Streptococcus pneumoniae): ≤ 0.12 µg/mL | MIC90 (S pneumoniae (SPN); Streptococcus pneumoniae, CIP-R (171)): ≤ 0.12 µg/mL | MIC90 (S pneumoniae (SPN); Streptococcus pneumoniae, TET R (733)): ≤ 0.12 µg/mL | MIC90 (S pneumoniae (SPN); Streptococcus pneumoniae, […]): 0.12 µg/mL (≈ 0.205 µM) | MIC 50% (S pneumoniae (SPN); TET R (733)): ≤ 0.12 µg/mL | MIC50 (Enterobacter spp. (ENT) [7]): 0.5 µg/mL (≈ 0.854 µM) | MIC90 (Enterobacter spp. (ENT) [7]): 2 µg/mL (≈ 3.41 µM) | MIC90 (H. influenzae (Hi) [9]; NP): 1 µg/mL (≈ 1.71 µM) | MIC50 (H. influenzae (Hi) [9]; NP (16)): 0.5 µg/mL (≈ 0.854 µM) | MIC [10]: 0.06 to 0.5 µg/mL (≈ 0.102 to 0.854 µM) | MIC50 (Enterococcus spp. (ESP); Enterococcus): ≤ 0.12 µg/mL | MIC90 (Enterococcus spp. (ESP); Enterococcus): 0.25 µg/mL (≈ 0.427 µM) | MIC 50% (Enterococcus spp. (ESP); Van B (95)): ≤ 0.12 µg/mL | MIC 90% (Enterococcus spp. (ESP); Van B (95)): 0.25 µg/mL (≈ 0.427 µM) | MIC50 (Klebsiella spp. (KSP)): 0.5 µg/mL (≈ 0.854 µM) | MIC90 (Klebsiella spp. (KSP)): 1 µg/mL (≈ 1.71 µM) | MIC (Klebsiella spp. (KSP); read-out: MICs): ≤ 2 µg/mL | MIC50 (E. coli (EC)): 0.25 µg/mL (≈ 0.427 µM) | MIC90 (E. coli (EC)): 0.5 µg/mL (≈ 0.854 µM) | MIC (E. coli (EC); read-out: MICs): ≤ 2 µg/mL | MIC50 (S. aureus (SA) [11]): 0.25 µg/mL (≈ 0.427 µM) | MIC90 (S. aureus (SA) [11]): 0.5 µg/mL (≈ 0.854 µM) | MIC50 [13]: ≤ 0.12 µg/mL | MIC90 [13]: 0.5 µg/mL (≈ 0.854 µM) | MIC50 (Serratia spp. (SER)): 1 µg/mL (≈ 1.71 µM) | MIC90 (Serratia spp. (SER)): 4 µg/mL (≈ 6.83 µM) | MIC50 (S. pneumoniae (SPN) [14]): ≤ 0.12 µg/mL | MIC90 (S. pneumoniae (SPN) [14]): ≤ 0.12 µg/mL | MIC90 (S. pneumoniae (SPN) [15]; NP): ≤0.12/≤0.12 mg/L | MIC50 (S. pneumoniae (SPN) [15]; NP (117)): ≤0.12/≤0.12 mg/L | MIC90 (P. aeruginosa (PSA)): 16 µg/mL (≈ 27.3 µM) | MIC50 (Klebsiella spp. ESBL; Klebsiella): 0.5 µg/mL (≈ 0.854 µM) | MIC90 (Klebsiella spp. ESBL; Klebsiella): 2 µg/mL (≈ 3.41 µM) | MIC90 (M. catarrhalis (MCAT)): 0.25 µg/mL (≈ 0.427 µM) | MIC50 (M. catarrhalis (MCAT); CARTI (600)): ≤ 0.12 µg/mL | MIC50 (M. catarrhalis (MCAT); NP (7)): 0.25 µg/mL (≈ 0.427 µM) | MIC50 (Enterobacteriaceae (ENT)): 0.5 µg/mL (≈ 0.854 µM) | MIC 50% (Enterobacteriaceae (ENT)): 0.25 µg/mL (≈ 0.427 µM) | MIC90 (Enterobacteriaceae (ENT)): 4 µg/mL (≈ 6.83 µM) | MIC 90% (Enterobacteriaceae (ENT)): 2 µg/mL (≈ 3.41 µM)
SMILES: CN(C)c1cc(NC(=O)CNC(C)(C)C)c(O)c2c1C[C@H]1C[C@H]3[C@H](N(C)C)C(O)=C(C(N)=O)C(=O)[C@@]3(O)C(O)=C1C2=O [tigecycline]
% inhibited at ≤ 2 mg/L (E. coli ESBL; (279)): >99% | % inhibited at ≤ 4 mg/L (E. coli ESBL; (279)): 100% | % inhibited at ≤ 2 mg/L (S pneumoniae (SPN); CIP-R (171)): 100% | % inhibited at ≤ 2 mg/L (S pneumoniae (SPN); TET R (733)): >99% | % inhibited at ≤ 4 mg/L (S pneumoniae (SPN); TET R (733)): >99% | % inhibited at ≤ 2 mg/L (S pneumoniae (SPN); […]): 100% | Total % Inhibited at ≤ 2 mg/L [8]: 97% | Total % Inhibited at ≤ 4 mg/L [8]: >99% | % ≤2 mg/L (Enterobacter spp. (ENT) [12]): 98% | % ≤4 mg/L (Enterobacter spp. (ENT) [12]): 100% | clinical cure [16]: 85.7% | % inhibited at ≤ 4 mg/L (Klebsiella spp. ESBL; (317)): 100% | % inhibited at ≤ 4 mg/L (Enterobacteriaceae (ENT)): 98%

concomitant drug bioavailability (AUC %) with POS vs alone [25]: 458%
SMILES: C=CC[C@@H]1/C=C(\C)C[C@H](C)C[C@H](OC)[C@H]2O[C@@](O)(C(=O)C(=O)N3CCCC[C@H]3C(=O)O[C@H](/C(C)=C/[C@@H]3CC[C@@H](O)[C@H](OC)C3)[C@H](C)[C@@H](O)CC1=O)[C@H](C)C[C@@H]2OC [Tacrolimus, tacrolimus]

MIC (Streptococcus pneumoniae): 4 µg/mL (≈ 4.93 µM)
SMILES: CC[C@H]1OC(=O)[C@H](C)C(=O)[C@H](C)[C@@H](O[C@@H]2O[C@H](C)C[C@H](N(C)C)[C@H]2O)[C@](C)(OC)C[C@@H](C)C(=O)[C@H](C)[C@H]2N(CCCCn3cnc(-c4cccnc4)c3)C(=O)O[C@]12C [telithromycin]
